According to US20230095689A1, “METHOD OF CULTURING RECONSTRUCTED HUMAN SKIN” (Korea University Research and Business Foundation, priority 2021, published 2023):

Tested on: reconstructed human skin produced according to Example 1
Assay: Evaluation of skin barrier function of reconstructed human skin with liquid surfactant (MTT, OECD Test Guideline 439)
Format: cell-based
Description: In order to confirm the skin barrier function of the reconstructed human skin produced according to the present invention, the skin barrier function was evaluated using the reconstructed human skin produced in the culture vessel having the inner wall coated with dopamine in Example 1. The skin barrier function was evaluated in a manner in which cell viability relative to an untreated control depending on the treatment time with 1% Triton X-100 was measured, and ET50 (Effective Time 50%), which is the time taken to reach the cell viability of 50%, was determined, according to the barrier evaluation method presented as a performance standard in OECD Test Guideline 439. […] The formazan dye thus formed was dissolved in 2 ml of 2-propanol, 200 μl thereof was placed in each of two wells of a 96-well plate, and optical density at a wavelength of 570 nm was measured using a plate reader, and each optical density of treated group was compared to those in untreated control, thereby calculating relative cell viability, and ET50 (Effective Time 50), which is the time taken to reach the cell viability of 50%, was determined.

Triton X-100
relative cell viability (1% Triton X-100 for 2, 5, 8 and 20 hours, MTT relative to untreated control): decreased depending on the treatment time | ET50 (Effective Time 50), time taken to reach the cell viability of 50% (200 μl of 1% Triton X-100 solution on upper surface, MTT, optical density at 570 nm relative to untreated control): about 4.5 hours
